Measurements published in patent US9433621B2, “Substituted pyridine and pyrimidine derivatives and their use in treating viral infections” (Merck Sharp & Dohme Corp., priority 2010, dated 2016).

Tested on: HCV replicon
Experiment: Cell-Based HCV Replicon Assay
Conditions: Hepatitis C virus; HCV Replicon assay, EC90 range, Table VI; read-out: EC90
Outline: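 EC50 and EC90 taken from sigmoid fits of ΔCT (5B minus GAPDH) as the concentrations raising ΔCT by 1 and 3.2 over baseline, via multiplex real-time RT-PCR on lysates after 3 days. Replicon cells at 5000/well; 10 two-fold dilutions from 25–1 μM, 0.5% DMSO, 10% FBS.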

SMILES	EC90 [nM]
Cc1nc(NCCSC(C)(C)C)nc(N[C@@H]2C[C@H](C(C)(C)NS(C)(=O)=O)[C@@H](O)[C@H]2O)c1-c1nc2c(C)nccc2s1 [Example 5039]	< 500
COC[C@@H](C)Nc1nc(C)c(-c2nc3c(C)nccc3s2)c(N[C@@H]2C[C@H](C(C)(C)NC(=O)OC)[C@@H](O)[C@H]2O)n1 [Example 5040]	< 500
COC(=O)NC(C)(C)[C@H]1C[C@@H](Nc2nc(NC[C@@H](C)OC)nc(C)c2-c2nc3c(C)nccc3s2)[C@H](O)[C@@H]1O [Example 5041]	< 500
COCCNc1nc(C)c(-c2nc3c(C)nccc3s2)c(N[C@@H]2C[C@H](C(C)(C)NC(=O)OC)[C@@H](O)[C@H]2O)n1 [Example 5042]	< 500
Cc1nc(NCC2CC2)nc(N[C@@H]2C[C@H](C(C)(C)NS(C)(=O)=O)[C@@H](O)[C@H]2O)c1-c1nc2c(C)nccc2s1 [Example 5044]	< 500
Cc1nc(NCC(C)(C)C)nc(N[C@@H]2C[C@H](C(C)(C)NS(C)(=O)=O)[C@@H](O)[C@H]2O)c1-c1nc2c(C)nccc2s1 [Example 5045]	< 500
COC(=O)NC(C)(C)[C@H]1C[C@@H](Nc2nc(NCC3CC3)nc(C)c2-c2nc3c(C)nccc3s2)[C@H](O)[C@@H]1O [Example 5046]	< 500
COC(=O)NC(C)(C)[C@H]1C[C@@H](Nc2nc(NCC(C)(C)C)nc(C)c2-c2nc3c(C)nccc3s2)[C@H](O)[C@@H]1O [Example 5047]	< 500
Cc1nc(NC2CC2)nc(N[C@@H]2C[C@H](C(C)(C)NS(C)(=O)=O)[C@@H](O)[C@H]2O)c1-c1nc2c(C)nccc2s1 [Example 5048]	< 500
Cc1nc(NC2CCC2)nc(N[C@@H]2C[C@H](C(C)(C)NS(C)(=O)=O)[C@@H](O)[C@H]2O)c1-c1nc2c(C)nccc2s1 [Example 5049]	< 500
COC(=O)NC(C)(C)[C@H]1C[C@@H](Nc2nc(NC3CC3)nc(C)c2-c2nc3c(C)nccc3s2)[C@H](O)[C@@H]1O [Example 5050]	< 500
Cc1nc(NCC2CC2)nc(N[C@@H]2C[C@H](C(C)(C)N=[N+]=[N-])[C@@H](O)[C@H]2O)c1-c1nc2c(C3CC3)nccc2s1 [Example 5051]	< 500
CCS(=O)(=O)C(C)(C)[C@H]1C[C@@H](Nc2nc(NCC3CC3)nc(C)c2-c2nc3c(C)nccc3s2)[C@H](O)[C@@H]1O [Example 5057]	< 500
CCS(=O)(=O)C(C)(C)[C@H]1C[C@@H](Nc2nc(NC3CCC3)nc(C)c2-c2nc3c(C)nccc3s2)[C@H](O)[C@@H]1O [Example 5058]	< 500
CCS(=O)(=O)C(C)(C)[C@H]1C[C@@H](Nc2nc(NCC3CC3)nc(C)c2-c2nc3c(C4CC4)nccc3s2)[C@H](O)[C@@H]1O [Example 5059]	< 500
CCS(=O)(=O)C(C)(C)[C@H]1C[C@@H](Nc2nc(NC3CCC3)nc(C)c2-c2nc3c(C4CC4)nccc3s2)[C@H](O)[C@@H]1O [Example 5060]	< 500
CCS(=O)(=O)C(C)(C)[C@H]1C[C@@H](Nc2nc(NCc3c(F)cc(F)cc3F)nc(C)c2-c2nc3c(C4CC4)nccc3s2)[C@H](O)[C@@H]1O [Example 5061]	< 500
Cc1nc(NC2CCC2)nc(N[C@@H]2C[C@H](C(C)(C)S(C)(=O)=O)[C@@H](O)[C@H]2O)c1-c1nc2c(C)nccc2s1 [Example 5062]	< 500
Cc1nc(NCc2c(F)cc(F)cc2F)nc(N[C@@H]2C[C@H](C(C)(C)S(C)(=O)=O)[C@@H](O)[C@H]2O)c1-c1nc2c(C)nccc2s1 [Example 5063]	< 500
Cc1nc(NC2CCC2)nc(N[C@@H]2C[C@H](C(C)(C)S(C)(=O)=O)[C@@H](O)[C@H]2O)c1-c1nc2c(C3CC3)nccc2s1 [Example 5064]	< 500
Cc1nc(NCc2c(F)cc(F)cc2F)nc(N[C@@H]2C[C@H](C(C)(C)S(C)(=O)=O)[C@@H](O)[C@H]2O)c1-c1nc2c(C3CC3)nccc2s1 [Example 5065]	< 500
Cc1nc(NCC2CC2)nc(N[C@@H]2C[C@H](C(C)(C)S(=O)(=O)c3ccccc3)[C@@H](O)[C@H]2O)c1-c1nc2c(C)nccc2s1 [Example 5066]	< 500
Cc1nc(NCC(F)(F)F)nc(N[C@@H]2C[C@H](C(C)(C)S(=O)(=O)c3ccccc3)[C@@H](O)[C@H]2O)c1-c1nc2c(C)nccc2s1 [Example 5067]	< 500
Cc1nc(NCC(C)(C)C)nc(N[C@@H]2C[C@H](C(C)(C)S(=O)(=O)c3ccccc3)[C@@H](O)[C@H]2O)c1-c1nc2c(C)nccc2s1 [Example 5068]	< 500
Cc1nc(N)nc(N[C@@H]2C[C@H](C(C)(C)S(C)(=O)=O)[C@@H](O)[C@H]2O)c1-c1nc2c(C)nccc2s1 [Example 5069]	< 500
Cc1nc(NCC2CC2)nc(N[C@@H]2C[C@H](C(C)(C)S(C)(=O)=O)[C@@H](O)[C@H]2O)c1-c1nc2c(C)nccc2s1 [Example 5070]	< 500
COCCNc1nc(C)c(-c2nc3c(C)nccc3s2)c(N[C@@H]2C[C@H](C(C)(C)S(C)(=O)=O)[C@@H](O)[C@H]2O)n1 [Example 5071]	< 500

SMILES	EC90 [nM]
Cc1nc(N)nc(N[C@@H]2C[C@H](C(C)(C)S(C)(=O)=O)[C@@H](O)[C@H]2O)c1-c1nc2c(C3CC3)nccc2s1 [Example 5072]	< 500
Cc1nc(NCC2CC2)nc(N[C@@H]2C[C@H](C(C)(C)S(C)(=O)=O)[C@@H](O)[C@H]2O)c1-c1nc2c(C3CC3)nccc2s1 [Example 5073]	< 500
Cc1nc(NCC(C)(C)C)nc(N[C@@H]2C[C@H](C(C)(C)S(C)(=O)=O)[C@@H](O)[C@H]2O)c1-c1nc2c(C3CC3)nccc2s1 [Example 5074]	< 500
COCCNc1nc(C)c(-c2nc3c(C4CC4)nccc3s2)c(N[C@@H]2C[C@H](C(C)(C)S(C)(=O)=O)[C@@H](O)[C@H]2O)n1 [Example 5075]	< 500
Cc1nc(N)nc(N[C@@H]2C[C@H](C(C)(C)S(=O)(=O)c3ccccc3)[C@@H](O)[C@H]2O)c1-c1nc2c(C)nccc2s1 [Example 5076]	< 500
COCCNc1nc(C)c(-c2nc3c(C)nccc3s2)c(N[C@@H]2C[C@H](C(C)(C)S(=O)(=O)c3ccccc3)[C@@H](O)[C@H]2O)n1 [Example 5077]	< 500
Cc1nc(NCC(F)(F)F)nc(N[C@@H]2C[C@H](C(C)(C)S(C)(=O)=O)[C@@H](O)[C@H]2O)c1-c1nc2c(C)nccc2s1 [Example 5078]	< 500
Cc1nc(NCC(F)(F)F)nc(N[C@@H]2C[C@H](C(C)(C)S(C)(=O)=O)[C@@H](O)[C@H]2O)c1-c1nc2c(C3CC3)nccc2s1 [Example 5079]	< 500
Cc1nc(NCC2CC2)nc(N[C@@H]2C[C@H](C(C)(C)S(=O)(=O)c3ccccc3)[C@@H](O)[C@H]2O)c1-c1nc2c(N)nccc2s1 [Example 5080]	< 500
Cc1nc(N)nc(N[C@@H]2C[C@H](C(C)(C)S(=O)(=O)c3ccccc3)[C@@H](O)[C@H]2O)c1-c1nc2c(N)nccc2s1 [Example 5081]	< 500
Cc1nc(NCc2c(F)cccc2F)nc(N[C@@H]2C[C@H](NC(=O)NCc3ccccc3F)[C@@H](O)[C@H]2O)c1-c1nc2c(C3CC3)nccc2s1 [Example 5082]	500 to 5000
Cc1nc(NCc2c(F)cccc2F)nc(N[C@@H]2C[C@H](NC(=O)NC(C)C)[C@@H](O)[C@H]2O)c1-c1nc2c(C3CC3)nccc2s1 [Example 5083]	< 500
Cc1nc(NCc2c(F)cccc2F)nc(N[C@@H]2C[C@H](NC(=O)OCc3nccs3)[C@@H](O)[C@H]2O)c1-c1nc2c(C3CC3)nccc2s1 [Example 5084]	< 500
CCCNC(=O)N[C@H]1C[C@@H](Nc2nc(NCc3c(F)cccc3F)nc(C)c2-c2nc3c(C4CC4)nccc3s2)[C@H](O)[C@@H]1O [Example 5085]	< 500
CO[C@H](C)CNc1nc(C)c(-c2nc3c(C4CC4)nccc3s2)c(N[C@@H]2C[C@H](C(N)=O)[C@@H](O)[C@H]2O)n1 [Example 5086]	< 500
CCNC(=O)N[C@H]1C[C@@H](Nc2nc(NCC3CC3)nc(C)c2-c2nc3c(C4CC4)nccc3s2)[C@H](O)[C@@H]1O [Example 5087]	< 500
Cc1nc(NCC2CC2)nc(N[C@@H]2C[C@H](NC(=O)NC(C)(C)C)[C@@H](O)[C@H]2O)c1-c1nc2c(C3CC3)nccc2s1 [Example 5088]	< 500
Cc1nc(N[C@H](C)C2CC2)nc(N[C@@H]2C[C@H](NC(=O)NC(C)(C)C)[C@@H](O)[C@H]2O)c1-c1nc2c(C3CC3)nccc2s1 [Example 5089]	< 500
Cc1nc(N[C@H](C)C2CC2)nc(N[C@@H]2C[C@H](NC(=O)NCc3ccc(C(F)(F)F)cc3)[C@@H](O)[C@H]2O)c1-c1nc2c(C3CC3)nccc2s1 [Example 5090]	< 500
Cc1nc(NC(C)(C)C)nc(N[C@@H]2C[C@H](NC(=O)NC(C)(C)C)[C@@H](O)[C@H]2O)c1-c1nc2c(C3CC3)nccc2s1 [Example 5091]	< 500
Cc1nc(NCC2CC2)nc(N[C@@H]2C[C@H](NC(=O)Nc3ccccc3)[C@@H](O)[C@H]2O)c1-c1nc2c(C3CC3)nccc2s1 [Example 5092]	< 500
Cc1nc(NCC2CC2)nc(N[C@@H]2C[C@H](NC(=O)NC3CCCC3)[C@@H](O)[C@H]2O)c1-c1nc2c(C3CC3)nccc2s1 [Example 5093]	< 500
CCNC(=O)N[C@H]1C[C@@H](Nc2nc(NC(C)(C)C)nc(C)c2-c2nc3c(C4CC4)nccc3s2)[C@H](O)[C@@H]1O [Example 5094]	< 500
Cc1nc(NC(C)(C)C)nc(N[C@@H]2C[C@H](NC(=O)NC3CC3)[C@@H](O)[C@H]2O)c1-c1nc2c(C3CC3)nccc2s1 [Example 5095]	< 500
Cc1nc(N[C@H](C)C2CC2)nc(N[C@@H]2C[C@H](NC(=O)N(C)C)[C@@H](O)[C@H]2O)c1-c1nc2c(C3CC3)nccc2s1 [Example 5096]	< 500
Cc1nc(NC(C)(C)C)nc(N[C@@H]2C[C@H](NC(=O)N(C)C)[C@@H](O)[C@H]2O)c1-c1nc2c(C3CC3)nccc2s1 [Example 5097]	< 500
Cc1nc(NCC2CC2)nc(N[C@@H]2C[C@H](NC(=O)N(C)C)[C@@H](O)[C@H]2O)c1-c1nc2c(C3CC3)nccc2s1 [Example 5098]	< 500
